Values quoted from earlier work, collected in patent US20220409829A1, “ANTIVIRAL THAT DESTROYS DNA AND/OR RNA OF VIRUSES AND VIROIDS” (priority 2021, published 2022).

What was measured:
[1] = within 10 minutes; inhalation; FIG. 4
[2] = FIG. 5
[3] = FIG. 5; remark: listed apart in the source

For `[N-]=[N+]=O` [nitrous oxide], the “equilibration (Fa/Fi)” value [1] is listed as “approximately 90%”, the blood/gas partition coefficient [2] is listed as 0.46 and the agranulocytosis (bone marrow; after 4 days of exposure) is listed as “apparent”. The “Megaloblastic changes in bone marrow” value (bone marrow; exposure to anesthetic concentrations for 24 hours) was “observed” and the minimum alveolar concentration [3] was 105%.
